The values below come from US20200060276A1, “THIAZOLE COMPOUND AND HERBICIDE” (OAT Agrio Co., Ltd., priority 2017, published 2020).

What all share (format): in vivo
The test system of one assay is Scirpus juncoides. Nature of the assay: Test for Herbicidal Effect in Flooding Treatment (#1), SCIJU. The conditions noted are these: for SCIJU #1 herbicidal effect (growth inhibition grade): flooding treatment at seeding, dose 2 kg/ha, visual observation on day 21. An outline of the steps:
(§1)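 Flooded soil in cups was seeded 24 h after flooding, then treated with compound in acetone diluted with Tween 80-containing water, dropped onto the water surface at 2 kg/ha. After growth in a glasshouse, growth inhibition was scored visually on day 21 on a 0 (<10%) to 5 (≥90% or complete withering) scale.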

Assay [1] relates to Echinochloa crus-galli (L.) P. Beauv. var. formosensis Ohwi. The experiment in a line: Test for Herbicidal Effect in Flooding Treatment (#2), ECHDG at 2-2.5 leaf stage. The note with it: for ECHDG (2-2.5L) #2 herbicidal effect (growth inhibition grade): flooding treatment at 2-2.5 leaf stage, dose 0.2 kg/ha, visual observation on day 21. The method in brief:
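Scoring is a visual 0–5 scale of growth inhibition (0 below 10%, 5 at 90% or more or full withering), taken 21 days after treatment in a glasshouse. Dose was 0.2 kg/ha, applied as acetone/Tween 80 aqueous solution onto flooded soil once seedlings reached the 2–2.5 leaf stage.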

Assay [2] shares this test system. The experiment in a line: Test for Herbicidal Effect in Flooding Treatment (#1), ECHDG. The note with it: for ECHDG #1 herbicidal effect (growth inhibition grade): flooding treatment at seeding, dose 2 kg/ha, visual observation on day 21. The method in brief: as §1
The test system of a further assay is Monochoria vaginalis. Nature of the assay: Test for Herbicidal Effect in Flooding Treatment (#1), MONVA. The conditions noted are these: for MONVA #1 herbicidal effect (growth inhibition grade): flooding treatment at seeding, dose 2 kg/ha, visual observation on day 21. An outline of the steps: as §1

For `O=S(=O)(Cc1c(OCC(F)F)cccc1C(F)(F)F)c1ncc(Cl)s1` [Compound 1C-52], the “SCIJU #1 herbicidal effect (growth inhibition grade)” value in the assay with Scirpus juncoides is reported as 5 (Growth inhibition effect is equal to or greater than 90%, or complete withering is achieved). In assay [1], the “ECHDG (2-2.5L) #2 herbicidal effect (growth inhibition grade)” value is reported as 5 (Growth inhibition effect is equal to or greater than 90%, or complete withering is achieved). The “ECHDG #1 herbicidal effect (growth inhibition grade)” value in assay [2] is listed as 5 (Growth inhibition effect is equal to or greater than 90%, or complete withering is achieved). In addition, the “MONVA #1 herbicidal effect (growth inhibition grade)” value with Monochoria vaginalis is listed as 5 (Growth inhibition effect is equal to or greater than 90%, or complete withering is achieved).
For `[2H]C([2H])(c1ccccc1OCC(F)(F)F)S(=O)(=O)c1ncc(Cl)s1` [Compound 1C-134], the “SCIJU #1 herbicidal effect (growth inhibition grade)” value in the assay on Scirpus juncoides is 5 (Growth inhibition effect is equal to or greater than 90%, or complete withering is achieved). The “ECHDG (2-2.5L) #2 herbicidal effect (growth inhibition grade)” value in assay [1] is reported as 5 (Growth inhibition effect is equal to or greater than 90%, or complete withering is achieved). For the same molecule, in assay [2], the “ECHDG #1 herbicidal effect (growth inhibition grade)” value is on record as 5 (Growth inhibition effect is equal to or greater than 90%, or complete withering is achieved). Also, the “MONVA #1 herbicidal effect (growth inhibition grade)” value in the assay with Monochoria vaginalis was 5 (Growth inhibition effect is equal to or greater than 90%, or complete withering is achieved).
As to `[O-][S+](Cc1c(Cl)cccc1OC(F)(F)C(F)(F)F)c1ncc(Br)s1` (stereo not drawn) [Compound 1B-24], the “SCIJU #1 herbicidal effect (growth inhibition rating 0-5)” value with Scirpus juncoides (flooding treatment #1) was 5 (Growth inhibition effect is equal to or greater than 90%, or complete withering is achieved). Besides, in assay [1] (flooding treatment #2, 2-2.5 leaf stage), the “ECHDG (2-2.5L) #2 herbicidal effect (growth inhibition rating 0-5)” value is 5 (Growth inhibition effect is equal to or greater than 90%, or complete withering is achieved). Moreover, the “ECHDG #1 herbicidal effect (growth inhibition rating 0-5)” value in assay [2] (flooding treatment #1) is 5 (Growth inhibition effect is equal to or greater than 90%, or complete withering is achieved). In addition, in the assay with Monochoria vaginalis (flooding treatment #1), the “MONVA #1 herbicidal effect (growth inhibition rating 0-5)” value was 5 (Growth inhibition effect is equal to or greater than 90%, or complete withering is achieved).
Take `[2H]C([2H])(c1c(Cl)cccc1OC(F)(F)F)S(=O)(=O)c1ncc(Cl)s1` [Compound 1C-133]: the “SCIJU #1 herbicidal effect (growth inhibition grade)” value in the assay with Scirpus juncoides is 5 (Growth inhibition effect is equal to or greater than 90%, or complete withering is achieved). For the same molecule, the “ECHDG (2-2.5L) #2 herbicidal effect (growth inhibition grade)” value in assay [1] is 5 (Growth inhibition effect is equal to or greater than 90%, or complete withering is achieved). The “ECHDG #1 herbicidal effect (growth inhibition grade)” value in assay [2] is 5 (Growth inhibition effect is equal to or greater than 90%, or complete withering is achieved). For the same molecule, in the assay on Monochoria vaginalis, the “MONVA #1 herbicidal effect (growth inhibition grade)” value is reported as 5 (Growth inhibition effect is equal to or greater than 90%, or complete withering is achieved).
As to `O=S(=O)(Cc1c(Cl)cccc1OC(F)(F)F)c1ncc(Cl)s1` [Compound 1C-49], the “SCIJU #1 herbicidal effect (growth inhibition grade)” value in the assay with Scirpus juncoides was 5 (Growth inhibition effect is equal to or greater than 90%, or complete withering is achieved). The “ECHDG (2-2.5L) #2 herbicidal effect (growth inhibition grade)” value in assay [1] is given as 5 (Growth inhibition effect is equal to or greater than 90%, or complete withering is achieved). The “ECHDG #1 herbicidal effect (growth inhibition grade)” value in assay [2] is listed as 5 (Growth inhibition effect is equal to or greater than 90%, or complete withering is achieved). In addition, the “MONVA #1 herbicidal effect (growth inhibition grade)” value with Monochoria vaginalis is on record as 5 (Growth inhibition effect is equal to or greater than 90%, or complete withering is achieved).
As for `COc1cccc(C(F)(F)F)c1CS(=O)(=O)c1ncc(Cl)s1` [Compound 1C-7], the “SCIJU #1 herbicidal effect (growth inhibition grade)” value in the assay with Scirpus juncoides is given as 5 (Growth inhibition effect is equal to or greater than 90%, or complete withering is achieved). Moreover, the “ECHDG (2-2.5L) #2 herbicidal effect (growth inhibition grade)” value in assay [1] is reported as 5 (Growth inhibition effect is equal to or greater than 90%, or complete withering is achieved). For the same molecule, the “ECHDG #1 herbicidal effect (growth inhibition grade)” value in assay [2] is reported as 5 (Growth inhibition effect is equal to or greater than 90%, or complete withering is achieved). The “MONVA #1 herbicidal effect (growth inhibition grade)” value in the assay with Monochoria vaginalis is listed as 5 (Growth inhibition effect is equal to or greater than 90%, or complete withering is achieved).
In general, inhibition refers to how much of the control response was suppressed. For `COc1cccc(Cl)c1CS(=O)(=O)c1ncc(Cl)s1` [Compound 1C-6], the “SCIJU #1 herbicidal effect (growth inhibition grade)” value in the assay on Scirpus juncoides is given as 5 (Growth inhibition effect is equal to or greater than 90%, or complete withering is achieved). For the same molecule, in assay [1] (Echinochloa crus-galli, 504 h, flooding treatment (#2), ECHDG at 2-2.5 leaf stage, dose of 0.2 kg/ha, day 21, visual observation, read-out: growth inhibition effect), the inhibition at 200 g/ha was not below 90%. The “ECHDG (2-2.5L) #2 herbicidal effect (growth inhibition grade)” value in assay [1] is 5 (Growth inhibition effect is equal to or greater than 90%, or complete withering is achieved). Moreover, in assay [2], the “ECHDG #1 herbicidal effect (growth inhibition grade)” value is listed as 5 (Growth inhibition effect is equal to or greater than 90%, or complete withering is achieved). Moreover, the “MONVA #1 herbicidal effect (growth inhibition grade)” value with Monochoria vaginalis is 5 (Growth inhibition effect is equal to or greater than 90%, or complete withering is achieved).
For the molecule `[2H]C([2H])(c1c(Cl)cccc1OCC(F)(F)F)S(=O)(=O)c1ncc(Cl)s1` [Compound 1C-135], the “SCIJU #1 herbicidal effect (growth inhibition grade)” value in the assay on Scirpus juncoides is 5 (Growth inhibition effect is equal to or greater than 90%, or complete withering is achieved). Besides, the “ECHDG (2-2.5L) #2 herbicidal effect (growth inhibition grade)” value in assay [1] is 5 (Growth inhibition effect is equal to or greater than 90%, or complete withering is achieved). In assay [2], the “ECHDG #1 herbicidal effect (growth inhibition grade)” value is given as 5 (Growth inhibition effect is equal to or greater than 90%, or complete withering is achieved). In the assay on Monochoria vaginalis, the “MONVA #1 herbicidal effect (growth inhibition grade)” value is listed as 5 (Growth inhibition effect is equal to or greater than 90%, or complete withering is achieved).
Take `O=S(=O)(Cc1c(F)cccc1OCCC(F)(F)F)c1ncc(Cl)s1` [Compound 1C-58]: the “SCIJU #1 herbicidal effect (growth inhibition grade)” value in the assay on Scirpus juncoides was 5 (Growth inhibition effect is equal to or greater than 90%, or complete withering is achieved). In addition, the “ECHDG (2-2.5L) #2 herbicidal effect (growth inhibition grade)” value in assay [1] is 5 (Growth inhibition effect is equal to or greater than 90%, or complete withering is achieved). Further, the “ECHDG #1 herbicidal effect (growth inhibition grade)” value in assay [2] is 5 (Growth inhibition effect is equal to or greater than 90%, or complete withering is achieved). In the assay on Monochoria vaginalis, the “MONVA #1 herbicidal effect (growth inhibition grade)” value was 5 (Growth inhibition effect is equal to or greater than 90%, or complete withering is achieved).
Turning to `O=S(=O)(Cc1c(F)cccc1OC(F)F)c1ncc(Cl)s1` [Compound 1C-43], the “SCIJU #1 herbicidal effect (growth inhibition grade)” value in the assay on Scirpus juncoides is 5 (Growth inhibition effect is equal to or greater than 90%, or complete withering is achieved). Moreover, the “ECHDG (2-2.5L) #2 herbicidal effect (growth inhibition grade)” value in assay [1] is listed as 5 (Growth inhibition effect is equal to or greater than 90%, or complete withering is achieved). Further, the “ECHDG #1 herbicidal effect (growth inhibition grade)” value in assay [2] is recorded as 5 (Growth inhibition effect is equal to or greater than 90%, or complete withering is achieved). Further, the “MONVA #1 herbicidal effect (growth inhibition grade)” value in the assay with Monochoria vaginalis is on record as 5 (Growth inhibition effect is equal to or greater than 90%, or complete withering is achieved).
In the case of `CCOc1ccc(Cl)c(F)c1CS(=O)(=O)c1ncc(Cl)s1` [Compound 1C-32], the “SCIJU #1 herbicidal effect (growth inhibition grade)” value in the assay on Scirpus juncoides is 5 (Growth inhibition effect is equal to or greater than 90%, or complete withering is achieved). The “ECHDG (2-2.5L) #2 herbicidal effect (growth inhibition grade)” value in assay [1] is 5 (Growth inhibition effect is equal to or greater than 90%, or complete withering is achieved). For the same molecule, the “ECHDG #1 herbicidal effect (growth inhibition grade)” value in assay [2] is 5 (Growth inhibition effect is equal to or greater than 90%, or complete withering is achieved). Further, the “MONVA #1 herbicidal effect (growth inhibition grade)” value in the assay with Monochoria vaginalis is 5 (Growth inhibition effect is equal to or greater than 90%, or complete withering is achieved).
